Source: patent publication US12251478B2 (Arizona Board of Regents on behalf of Arizona State …, priority 2019, dated 2025)

Key:
[1] = test system: acute and slow healing diabetic wounds; assay: Full-thickness punch biopsy wound model, statements covering acute and diabetic wounds together; format: in vivo, mice; conditions: histamine applied topically on 5 mm full thickness wounds, covered with Tegaderm or silk dressing, 800 nm NIR laser
Source text: (§1) The histamine composition was applied topically on 5-millimeter mid-dorsal full thickness wounds and covered with either Tegaderm™ (transparent film dressing) or a silk dressing and irradiated with 800 nm near infrared laser (NIR) light.
(§2) Post-wounding, the mice were recovered for 7-11 days and their healing kinetics were monitored for different treatment groups.
(§3) An example protocol is as follows. Full-thickness punch biopsy dorsal wounds were created on mice, bioactive wound dressing applied, and the wounds were splinted to prevent wound closure by contraction. Either immunomodulator molecule was delivered on the day of wounding or a later time-point to accelerate wound healing.

acute wounds = assay: Acute wound healing, full-thickness punch biopsy wound model in immunocompetent mice; format: in vivo, BALB/c mice
Source text: as §1, §2, §3
FIG. 1 includes images of a wound closure procedure, which was performed with BALB/c mice (about 8-10 weeks old), with a wound size of about 5 mm (n=10), and with a histamine concentration of 3.4 mg/kg per mouse.
Additionally, Elastin-Like Polypeptide (ELP) was used alone as a control. We tested whether ELP in itself influenced healing efficacy. These studies were performed in BALB/c mice (acute wounds), 5 mm wounds, ELP concentration 2 μM (per wound/mouse). Histamine and GFNPs concentration were 3.4 mg/kg and 2 μM, respectively. Histamine and GFNPs concentration were same as previous reported studies. The GFNPs used in this study is SDF1-ELP.
A histamine double dosage control (e.g., two sequential dosage of histamine) was investigated. […] These studies were performed in BALB/c mice (acute wounds) and in 5 mm wounds. Histamine and GFNPs concentration were 3.4 mg/kg and 2 μM, respectively. Histamine and GFNPs concentration were same as previous reported studies. The GFNPs used in this study is SDF1-ELP. We delivered histamine in the following manner: Histamine along with silk fibroin dressing on Day 0 post wounding (like previous studies); Histamine delivered on Day 3 post wounding. Wounds were treated with PBS and silk fibroin film alone on Day 0; Histamine along with silk fibroin on Day 0 post wounding+ second dose of histamine on Day 3 post wounding delivered using subcutaneous injection; and Histamine along with silk fibroin on Day 0 post wounding+ GFNPs delivered sequentially on Day 3 post wounding.

In the case of `NCCc1c[nH]cn1` [histamine], the tissue biomechanical recovery [1] is reported as “improved tissue biomechanical recovery”, the wound area [1] is reported as “Significant reduction in wound area” and the contractile activity (acute wounds; acute wound model) is reported as “higher contractile activity”. The neovascularization (acute wounds; acute wound model) was “higher neovascularization”, the re-epithelialization (acute wounds; acute wound model) was “higher re-epithelialization” and the “reduction of the dermal gap of a wound” value (acute wounds; acute wound model) was “improves reduction of the dermal gap”. The resolution of inflammation (acute wounds; acute wound model) was “better solution of inflammation” and the “tissue strength / ultimate tensile strength (UTS) of healed skin” value (acute wounds; acute wounds, day 7, compared between dressings with histamine or saline) was “higher skin strength recovery”.
